Entries after “also recorded” stand apart in the source; their conditions may differ.
Assays:
[1] = Water content of the product of the Examples by the Karl-Fischer method; type: physicochemical; settings: after water absorption (Examples 1-3) or vacuum drying (Examples 4-5)
Description: 1 kg of powder of 6-methoxy-2′,3′-dideoxyguanosine with 2.7% (wt %) of water content is laid in a plate flat and placed in the environment with the temperature of 5 degrees centigrade and the humidity of 60% (wt %), is mixed every 1-4 hours, and the required product is obtained after 48 hours.
0.5 kg of powder of 6-methoxy-2′,3′-dideoxyguanosine with 1.5% (wt %) of water content is laid in a plate flat and placed in the environment with the temperature of 15 degrees centigrade and the humidity of 40% (wt %), is mixed every 3-5 hours, and the required product is obtained after 36 hours.
0.5 kg of powder of 6-methoxy-2′,3′-dideoxyguanosine with 3.2% (wt %) of water content is laid in a plate flat and placed in the environment with the temperature of 0 degrees centigrade and the humidity of 90% (wt %), is mixed every 2 hours, and the required product is obtained after 36 hours.
1.5 kg of powder of 6-methoxy-2′,3′-dideoxyguanosine with 60.5% (wt %) of water content is laid in a plate flat and placed in a vacuum drying box, anhydrous calcium chloride is taken as a drying agent, vacuumizing is carried out by a water pump at the temperature of 25 degrees centigrade, decompression drying is further carried out, and the required product is obtained after 48 hours.
1.0 kg of powder of 6-methoxy-2′,3′-dideoxyguanosine with 40.5% (wt %) of water content is laid in a plate flat and placed in a vacuum drying box, phosphorus pentoxide is taken as a drying agent, vacuum decompression drying is carried out at the temperature of 15 degrees centigrade, and the required product is obtained after 38 hours.

[2] = Water-absorbing test in different humidity environments at 5 degrees centigrade; type: physicochemical
Description: (§1) Table 1 is a comparison table, wherein, the 6-methoxy-2′,3′-dideoxyguanosine with less than 6% (wt %) of water content is placed in different humidity environments at 5 degrees centigrade for carrying out water-absorbing tests, the products at the corresponding time points are placed in the environment with the temperature of 30 degrees centigrade and the humidity of 90% (wt %) for carrying out the acceleration test inspection, the sampling inspection are carried out at the 15th day, the 30th day and the 60th day respectively, and the inspection indexes comprise the character and the water content.

[3] = Acceleration test inspection at 30 degrees centigrade and humidity 90% (character and water content); type: physicochemical; settings: for Acceleration Test Inspection, Water Content / Acceleration Test Inspection, Character: 30 degrees centigrade, humidity 90%
Description: as §1

[4] = test system: HIV (Human Immunodeficiency Virus); test: Anti-HIV experimental study of the inventors
[5] = Metabolism in plasma to ddG; type: in vitro ADME; settings: metabolite 2′,3′-dideoxyguanosine (ddG)
[6] = Moisture absorption and handling under the general conditions; type: physicochemical; settings: for moisture absorption: general conditions
[7] = test system: hepatitis B virus (HBV); settings: reported in Chinese patent CN1493301A; cited from earlier work
[8] = test system: DHBV DNA replication; test: Suppression of DHBV DNA replication; settings: competition with ddCTP
[9] = product of placement time 14 hours, 15th Day
[10] = product of placement time 14 hours, 30th Day
[11] = product of placement time 14 hours, 60th Day
[12] = product of placement time 2 days, 15th Day
[13] = product of placement time 2 days, 30th Day
[14] = product of placement time 2 days, 60th Day
[15] = product of placement time 3 days, 15th Day
[16] = product of placement time 3 days, 30th Day
[17] = product of placement time 3 days, 60th Day
[18] = product of placement time 4 days, 15th Day
[19] = product of placement time 4 days, 30th Day
[20] = product of placement time 4 days, 60th Day
[21] = product of placement time 10 days, 15th Day
[22] = product of placement time 10 days, 30th Day
[23] = product of placement time 10 days, 60th Day

SMILES: COc1nc(N)nc2c1ncn2[C@H]1CC[C@@H](CO)O1 [Example 4, 6-methoxy-2′,3′-dideoxyguanosine]
- water content of the required product [1]: 22.5 % (wt %)

SMILES: COc1nc(N)nc2c1ncn2[C@H]1CC[C@@H](CO)O1 [6-methoxy-2′,3′-dideoxyguanosine]
- Water Content When Placed in Different Humidity Environments ([2]; Humidity 40%, placement time 0 hour): 2.7 wt %
- Water Content When Placed in Different Humidity Environments ([2]; Humidity 40%, placement time 1 hour): 4.3 wt %
- Water Content When Placed in Different Humidity Environments ([2]; Humidity 40%, placement time 2 hours): 5.4 wt %
- Water Content When Placed in Different Humidity Environments ([2]; Humidity 40%, placement time 14 hours): 8.7 wt %
- Water Content When Placed in Different Humidity Environments ([2]; Humidity 40%, placement time 2 days): 12.6 wt %
- Water Content When Placed in Different Humidity Environments ([2]; Humidity 40%, placement time 3 days): 21.8 wt %
- Water Content When Placed in Different Humidity Environments ([2]; Humidity 40%, placement time 4 days): 22.4 wt %
- Water Content When Placed in Different Humidity Environments ([2]; Humidity 40%, placement time 10 days): 21.8 wt %
- Water Content When Placed in Different Humidity Environments ([2]; Humidity 60%, placement time 0 hour): 2.7 wt %
- Water Content When Placed in Different Humidity Environments ([2]; Humidity 60%, placement time 1 hour): 4.7 wt %
- Water Content When Placed in Different Humidity Environments ([2]; Humidity 60%, placement time 2 hours): 5.7 wt %
- Water Content When Placed in Different Humidity Environments ([2]; Humidity 60%, placement time 14 hours): 8.6 wt %
- Water Content When Placed in Different Humidity Environments ([2]; Humidity 60%, placement time 2 days): 16.3 wt %
- Water Content When Placed in Different Humidity Environments ([2]; Humidity 60%, placement time 3 days): 22.5 wt %
- Water Content When Placed in Different Humidity Environments ([2]; Humidity 60%, placement time 4 days): 23.64 wt %
- Water Content When Placed in Different Humidity Environments ([2]; Humidity 60%, placement time 10 days): 23.5 wt %
- Water Content When Placed in Different Humidity Environments ([2]; Humidity 90%, placement time 0 hour): 2.7 wt %
- Water Content When Placed in Different Humidity Environments ([2]; Humidity 90%, placement time 1 hour): 5.1 wt %
- Water Content When Placed in Different Humidity Environments ([2]; Humidity 90%, placement time 2 hours): 5.8 wt %
- Water Content When Placed in Different Humidity Environments ([2]; Humidity 90%, placement time 14 hours): 8.9 wt %
- Water Content When Placed in Different Humidity Environments ([2]; Humidity 90%, placement time 2 days): 15.9 wt %
- Water Content When Placed in Different Humidity Environments ([2]; Humidity 90%, placement time 3 days): 22.7 wt %
- Water Content When Placed in Different Humidity Environments ([2]; Humidity 90%, placement time 4 days): 22.8 wt %
- Water Content When Placed in Different Humidity Environments ([2]; Humidity 90%, placement time 10 days): 21.9 wt %
- Acceleration Test Inspection, Water Content ([3]; product of placement time 1 hour, 15th Day): 23.4 wt %
- Acceleration Test Inspection, Water Content ([3]; product of placement time 1 hour, 30th Day): 22.4 wt %
- Acceleration Test Inspection, Water Content ([3]; product of placement time 1 hour, 60th Day): 21.8 wt %
- Acceleration Test Inspection, Water Content ([3]; product of placement time 2 hours, 15th Day): 22.9 wt %
- Acceleration Test Inspection, Water Content ([3]; product of placement time 2 hours, 30th Day): 22.1 wt %
- Acceleration Test Inspection, Water Content ([3]; product of placement time 2 hours, 60th Day): 21.5 wt %
- Acceleration Test Inspection, Character [3, 9]: Powder
- Acceleration Test Inspection, Water Content [3, 9]: 22.7 wt %
- Acceleration Test Inspection, Character [3, 10]: Powder
- Acceleration Test Inspection, Water Content [3, 10]: 22.0 wt %
- Acceleration Test Inspection, Character [3, 11]: Powder
- Acceleration Test Inspection, Water Content [3, 11]: 21.4 wt %
- Acceleration Test Inspection, Character [3, 12]: Powder
- Acceleration Test Inspection, Water Content [3, 12]: 23.0 wt %
- Acceleration Test Inspection, Character [3, 13]: Powder
- Acceleration Test Inspection, Water Content [3, 13]: 22.5 wt %
- Acceleration Test Inspection, Character [3, 14]: Powder
- Acceleration Test Inspection, Water Content [3, 14]: 21.6 wt %
- Acceleration Test Inspection, Character [3, 15]: Powder
- Acceleration Test Inspection, Water Content [3, 15]: 22.1 wt %
- Acceleration Test Inspection, Character [3, 16]: Powder
- Acceleration Test Inspection, Water Content [3, 16]: 21.8 wt %
- Acceleration Test Inspection, Character [3, 17]: Powder
- Acceleration Test Inspection, Water Content [3, 17]: 21.5 wt %
- Acceleration Test Inspection, Character [3, 18]: Powder
- Acceleration Test Inspection, Water Content [3, 18]: 22.9 wt %
- Acceleration Test Inspection, Character [3, 19]: Powder
- Acceleration Test Inspection, Water Content [3, 19]: 21.8 wt %
- Acceleration Test Inspection, Character [3, 20]: Powder
- Acceleration Test Inspection, Water Content [3, 20]: 21.8 wt %
- Acceleration Test Inspection, Character [3, 21]: Powder
- Acceleration Test Inspection, Water Content [3, 21]: 22.0 wt %
- Acceleration Test Inspection, Character [3, 22]: Powder
- Acceleration Test Inspection, Water Content [3, 22]: 21.7 wt %
- Acceleration Test Inspection, Character [3, 23]: Powder
- Acceleration Test Inspection, Water Content [3, 23]: 21.9 wt %
- character ([3]; water content greater than 6% (wt %), summary of Table 1): basically kept unchanged
- anti-HIV activity [4]: plays the role of fighting against the HIV
- metabolism in plasma [5]: rapidly metabolized in plasma to 2′,3′-dideoxyguanosine (ddG)
- behaviour during the smashing process ([6]; water content higher than 30% (wt %)): easy to be bonded into blocks during the smashing process
- moisture absorption ([6]; water content lower than 6% (wt %)): easy to absorb the water; also recorded: very easy to absorb moisture and be blocked
- anti-HBV activity [7]: anti-HBV activity

SMILES: COc1nc(N)nc2c1ncn2[C@H]1CC[C@@H](CO)O1 [Example 5, 6-methoxy-2′,3′-dideoxyguanosine]
- water content of the required product [1]: 18.5 % (wt %)

SMILES: COc1nc(N)nc2c1ncn2[C@H]1CC[C@@H](CO)O1 [Example 1, 6-methoxy-2′,3′-dideoxyguanosine]
- water content of the required product [1]: 23.5 % (wt %)

SMILES: COc1nc(N)nc2c1ncn2[C@H]1CC[C@@H](CO)O1 [stable 6-methoxy-2′,3′-dideoxyguanosine, 6-methoxy-2′,3′-dideoxyguanosine]
- moisture absorption ([6]; stable form, water content 6-30% (wt %)): difficult to absorb the moisture
- stability ([6]; stable form, water content 6-30% (wt %), room temperature): very stable at room temperature

SMILES: Nc1nc2c(ncn2[C@H]2CC[C@@H](COP(=O)(O)OP(=O)(O)OP(=O)(O)O)O2)c(=O)[nH]1 [ddGTP]
- suppression of DHBV DNA replication [8]: can selectively compete with the ddCTP for suppressing the DHBV DNA replication

SMILES: COc1nc(N)nc2c1ncn2[C@H]1CC[C@@H](CO)O1 [Example 2, 6-methoxy-2′,3′-dideoxyguanosine]
- water content of the required product [1]: 12.5 % (wt %)

SMILES: COc1nc(N)nc2c1ncn2[C@H]1CC[C@@H](CO)O1 [Example 3, 6-methoxy-2′,3′-dideoxyguanosine]
- water content of the required product [1]: 23.2 % (wt %)
